Experimental data as given in patent publication US20210300832A1, “Micronutrient Concentrate and use thereof” (FINE AGROCHEMICALS LIMITED, priority 2018, published 2021).
Read-outs that look alike come from different tables or passages of the source.

Experiment: Solubility test of metal salts/chelates in glycol and other solvents
Procedure: The following mixtures were prepared from anhydrous copper-EDTA and the solvents described below.
Each time 1,2-propanediol was used as solvent. EDTA is ethylene-diamine tetra-acetic acid; DTPA is diethylenetriaminepentaacetic acid. […]

[1] = 1 wt % Cu.EDTA in the named solvent, same procedure as examples 1-9

CC(C)=O [acetone]
clear solution with 1 wt % Cu.EDTA (comparison solvents) [1]: None of these solvents were able to provide a clear solution

C[S+](C)[O-] [DMSO]
clear solution with 1 wt % Cu.EDTA (comparison solvents): None of these solvents were able to provide a clear solution

CC(N)CO (centres unmarked) [2-aminopropanol]
clear solution with 1 wt % Cu.EDTA (comparison solvents): None of these solvents were able to provide a clear solution

OCCCCO [1,4-butanediol]
clear solution with 1 wt % Cu.EDTA (comparison solvents) [1]: None of these solvents were able to provide a clear solution

CC(C)O [iso-propylalcohol]
clear solution with 1 wt % Cu.EDTA (comparison solvents): None of these solvents were able to provide a clear solution
